Experimental data from PMC4188605, “Biochemical and Pharmacological Characterization of the Human Lymphocyte Antigen B-Associated Transcript 5 (BAT5/ABHD16A)” (PLoS ONE, 2014).
pIC50: −log10 of the molar value. Where “and” joins values, the source holds several entries; their conditions need not be identical. Identical values can stand only once. Like-named read-outs stand apart in the source and are kept apart here.

How the values were obtained:
hABHD6 = target: T1, hABHD6 (Homo sapiens, UniProt Q9BV23); parameters: method as in PMID 22969151; settings: 2-AG as the substrate; range given jointly for hABHD6, hABHD12 and hMAGL; cited from earlier work
T1 construct: expressed in transfected cells; host or cells: HEK293
T1 sequence (Q9BV23 1-337): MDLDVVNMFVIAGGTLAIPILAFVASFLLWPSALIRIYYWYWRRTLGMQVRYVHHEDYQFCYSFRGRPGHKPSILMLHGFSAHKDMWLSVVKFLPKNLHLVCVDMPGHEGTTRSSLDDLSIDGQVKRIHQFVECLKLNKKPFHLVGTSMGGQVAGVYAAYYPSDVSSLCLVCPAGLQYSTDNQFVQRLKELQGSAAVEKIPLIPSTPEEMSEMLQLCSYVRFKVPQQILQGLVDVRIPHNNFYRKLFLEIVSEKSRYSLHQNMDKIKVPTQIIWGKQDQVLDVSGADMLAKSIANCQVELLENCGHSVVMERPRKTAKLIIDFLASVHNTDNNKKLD

hMAGL = target: T2, hMAGL (Homo sapiens, UniProt Q99685); settings: cited from earlier work
T2 construct: expressed in transfected cells; host or cells: HEK
T2 sequence (Q99685 1-303): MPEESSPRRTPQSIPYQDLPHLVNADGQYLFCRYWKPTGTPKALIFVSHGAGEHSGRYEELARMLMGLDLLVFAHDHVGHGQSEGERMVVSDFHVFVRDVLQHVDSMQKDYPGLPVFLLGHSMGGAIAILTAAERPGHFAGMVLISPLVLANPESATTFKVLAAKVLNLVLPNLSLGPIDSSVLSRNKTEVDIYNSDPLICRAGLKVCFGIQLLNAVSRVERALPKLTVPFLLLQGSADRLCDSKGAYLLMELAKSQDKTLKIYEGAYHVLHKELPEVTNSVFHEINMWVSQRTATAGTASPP

hABHD12 = target: T3, hABHD12 (Homo sapiens, UniProt Q8N2K0); parameters: method as in PMID 22969151; settings: 2-AG as the substrate; range given jointly for hABHD6, hABHD12 and hMAGL; cited from earlier work
T3 construct: expressed in transfected cells; host or cells: HEK293
T3 sequence (Q8N2K0 1-398): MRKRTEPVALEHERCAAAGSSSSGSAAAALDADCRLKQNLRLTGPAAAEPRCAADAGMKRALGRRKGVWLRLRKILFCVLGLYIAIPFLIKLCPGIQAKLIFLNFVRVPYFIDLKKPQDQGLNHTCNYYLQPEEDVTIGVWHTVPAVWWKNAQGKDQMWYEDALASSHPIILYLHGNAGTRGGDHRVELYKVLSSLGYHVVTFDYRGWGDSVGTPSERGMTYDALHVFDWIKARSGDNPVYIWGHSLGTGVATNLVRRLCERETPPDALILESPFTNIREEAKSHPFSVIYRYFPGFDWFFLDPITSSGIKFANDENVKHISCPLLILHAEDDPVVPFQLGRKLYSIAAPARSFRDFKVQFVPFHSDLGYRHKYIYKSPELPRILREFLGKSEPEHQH

hBAT5 [1] = target: T4, hBAT5 (Homo sapiens, UniProt O95870); assay: hBAT5 substrate hydrolysis and Michaelis-Menten kinetics (glycerol assay, hBAT5-HEK293 lysates); settings: with 0.5% BSA
T4 sequence (O95870 1-558): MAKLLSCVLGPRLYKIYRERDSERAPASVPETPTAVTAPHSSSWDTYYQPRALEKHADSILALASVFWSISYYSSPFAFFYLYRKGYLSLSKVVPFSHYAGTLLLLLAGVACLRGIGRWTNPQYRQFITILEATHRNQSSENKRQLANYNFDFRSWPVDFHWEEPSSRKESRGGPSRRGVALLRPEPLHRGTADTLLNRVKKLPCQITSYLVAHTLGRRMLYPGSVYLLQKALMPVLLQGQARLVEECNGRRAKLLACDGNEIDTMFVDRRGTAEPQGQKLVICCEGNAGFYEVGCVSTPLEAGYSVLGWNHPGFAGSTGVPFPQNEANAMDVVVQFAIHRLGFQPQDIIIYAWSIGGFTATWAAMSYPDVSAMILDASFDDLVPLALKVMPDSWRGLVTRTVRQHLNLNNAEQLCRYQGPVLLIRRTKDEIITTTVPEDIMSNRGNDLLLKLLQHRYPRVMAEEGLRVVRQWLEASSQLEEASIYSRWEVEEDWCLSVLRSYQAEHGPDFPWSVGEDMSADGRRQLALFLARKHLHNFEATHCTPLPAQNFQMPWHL
Method: HEK293 cells were transiently transfected with the cDNA encoding hBAT5, as detailed in the Methods section. After 48 h, cells were harvested and lysates prepared for hydrolase activity measurements using a sensitive fluorescent glycerol assay. […] Glycerol production was determined at time-point 60 min.
After 48 h, cells were harvested and lysates prepared for hydrolase activity measurements. Cellular lysates (0.3 µg/well) were incubated together with the indicated concentrations of 1-LG in assay mixes containing (+ BSA) or not (– BSA) 0.5% (w/v) BSA (A) or with 15d-PGJ2-G in assay mix containing BSA (B). […] As crude cellular lysates were used, total protein concentration was used instead of true enzyme concentration. […] Values are mean ± SEM from three independent experiments.
Glycerol liberated from the hydrolysis of glycerolipid substrates was determined kinetically using a fluorometric assay, essentially as previously described [10]. Briefly, glycerol production was coupled via a three-step enzymatic cascade to hydrogen peroxide (H2O2) dependent generation of resorufin whose fluorescence (λex 530; λem 590 nm) was kinetically monitored using a Tecan Infinite M200 plate reader (Tecan Group Ltd., Männedorf, Switzerland). The assays routinely contained 0.5% (w/v) BSA (essentially fatty acid free) as a carrier for lipophilic compounds. […] The twelve MAG substrates were tested also in assays without BSA. In addition, four commercially available PG-Gs were included. To monitor assay performance, assay blanks without enzyme, cellular background (HEK293/Mock cell lysates) as well as a glycerol standard were included for each tested substrate. Fluorescence of the assay blank was subtracted before calculation of the final results.

FAAH = target: T5, FAAH (Mus musculus, UniProt O08914); assay: Competitive ABPP, mouse brain membrane proteome: FAAH band
T5 sequence (O08914 1-579): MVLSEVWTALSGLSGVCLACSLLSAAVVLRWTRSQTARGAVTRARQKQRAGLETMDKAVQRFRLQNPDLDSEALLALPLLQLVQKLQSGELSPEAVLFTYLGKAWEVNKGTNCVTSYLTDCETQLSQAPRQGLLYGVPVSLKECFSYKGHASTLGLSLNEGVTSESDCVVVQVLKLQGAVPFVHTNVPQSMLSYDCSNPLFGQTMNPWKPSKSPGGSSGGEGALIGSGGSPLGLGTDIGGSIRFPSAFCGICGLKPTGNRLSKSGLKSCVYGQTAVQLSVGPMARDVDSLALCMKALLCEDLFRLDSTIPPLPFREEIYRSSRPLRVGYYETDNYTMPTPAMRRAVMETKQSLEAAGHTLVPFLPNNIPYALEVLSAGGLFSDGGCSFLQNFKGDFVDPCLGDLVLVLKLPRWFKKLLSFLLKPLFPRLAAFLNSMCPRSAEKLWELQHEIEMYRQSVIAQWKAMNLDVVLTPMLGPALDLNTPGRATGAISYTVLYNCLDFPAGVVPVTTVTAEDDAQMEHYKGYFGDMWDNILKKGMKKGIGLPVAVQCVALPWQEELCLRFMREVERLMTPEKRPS

ABHD6 = target: T6, ABHD6 (Mus musculus, UniProt Q8R2Y0); assay: Competitive ABPP, mouse brain membrane proteome: ABHD6 band; settings: reference inhibitor at the indicated concentration, used to identify the band (refs 18, 23, 24)
T6 sequence (Q8R2Y0 1-336): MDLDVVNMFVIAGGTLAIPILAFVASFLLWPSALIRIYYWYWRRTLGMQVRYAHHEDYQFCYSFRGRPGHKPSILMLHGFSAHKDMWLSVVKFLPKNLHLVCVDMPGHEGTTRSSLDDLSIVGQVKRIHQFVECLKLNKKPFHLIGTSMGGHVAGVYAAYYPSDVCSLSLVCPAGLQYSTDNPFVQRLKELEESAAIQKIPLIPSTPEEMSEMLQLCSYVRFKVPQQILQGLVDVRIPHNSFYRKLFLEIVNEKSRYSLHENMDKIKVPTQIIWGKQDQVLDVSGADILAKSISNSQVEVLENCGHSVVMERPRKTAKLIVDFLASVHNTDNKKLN

MAGL = target: T7, MAGL (Mus musculus, UniProt O35678); assay: Competitive ABPP, mouse brain membrane proteome: MAGL doublet
T7 sequence (O35678 1-303): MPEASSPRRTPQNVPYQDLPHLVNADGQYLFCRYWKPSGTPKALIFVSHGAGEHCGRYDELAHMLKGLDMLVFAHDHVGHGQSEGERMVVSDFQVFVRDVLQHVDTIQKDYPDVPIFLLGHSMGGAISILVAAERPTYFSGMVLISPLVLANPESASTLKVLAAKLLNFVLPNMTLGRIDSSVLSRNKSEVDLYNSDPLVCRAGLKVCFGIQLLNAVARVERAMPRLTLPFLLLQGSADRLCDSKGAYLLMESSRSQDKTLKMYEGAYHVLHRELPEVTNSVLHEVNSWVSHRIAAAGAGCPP

KIAA1363 = target: T8, KIAA1363 (Mus musculus, UniProt Q8BLF1); assay: Competitive ABPP, mouse brain membrane proteome: KIAA1363 doublet; format: binding; settings: 1 µM or indicated concentrations (Figure 11); 60 min
T8 construct: from tissue; host or cells: mouse whole brain membranes
T8 sequence (Q8BLF1 1-408): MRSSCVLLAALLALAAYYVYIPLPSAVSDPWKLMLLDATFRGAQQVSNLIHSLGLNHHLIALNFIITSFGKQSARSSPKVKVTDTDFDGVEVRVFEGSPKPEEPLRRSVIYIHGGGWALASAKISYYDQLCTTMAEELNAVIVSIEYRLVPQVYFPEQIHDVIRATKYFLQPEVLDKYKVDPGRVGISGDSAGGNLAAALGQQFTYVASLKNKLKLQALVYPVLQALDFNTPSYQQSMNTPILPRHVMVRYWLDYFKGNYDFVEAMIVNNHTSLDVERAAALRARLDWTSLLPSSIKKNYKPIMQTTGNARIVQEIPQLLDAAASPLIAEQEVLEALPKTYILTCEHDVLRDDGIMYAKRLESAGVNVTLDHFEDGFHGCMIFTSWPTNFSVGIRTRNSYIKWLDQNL

hBAT5 [2] = target: T4, hBAT5; assay: Inhibition of 1-LG hydrolysis in hBAT5-HEK293 lysates (fluorescent glycerol assay); format: biochemical; parameters: host or cells: HEK293; settings: 1-LG 25 µM; 30 min inhibitor pretreatment; monitored 90 min; mean, n=3; read-out: IC50
BAT5 = target: T9, BAT5 (Mus musculus, UniProt Q9Z1Q2); assay: Competitive ABPP, mouse brain membrane proteome: BAT5 band; settings: mouse brain membrane proteome, competitive ABPP
T9 sequence (Q9Z1Q2 1-558): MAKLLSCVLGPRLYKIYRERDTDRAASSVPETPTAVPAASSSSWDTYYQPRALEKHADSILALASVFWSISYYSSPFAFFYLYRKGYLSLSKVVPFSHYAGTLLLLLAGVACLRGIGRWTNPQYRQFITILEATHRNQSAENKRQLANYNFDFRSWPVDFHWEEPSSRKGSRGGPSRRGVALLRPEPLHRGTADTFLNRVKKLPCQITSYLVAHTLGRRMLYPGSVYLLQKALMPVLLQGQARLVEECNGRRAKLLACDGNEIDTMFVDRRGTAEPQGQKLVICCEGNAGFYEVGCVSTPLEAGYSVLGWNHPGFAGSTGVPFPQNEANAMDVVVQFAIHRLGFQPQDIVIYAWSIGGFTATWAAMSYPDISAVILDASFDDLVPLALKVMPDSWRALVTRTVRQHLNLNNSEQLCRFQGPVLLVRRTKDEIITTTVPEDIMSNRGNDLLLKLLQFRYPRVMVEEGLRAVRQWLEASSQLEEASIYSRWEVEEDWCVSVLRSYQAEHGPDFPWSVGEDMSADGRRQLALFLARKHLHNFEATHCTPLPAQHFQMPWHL

LYPLA1/2 = assay: Competitive ABPP, mouse brain membrane proteome: LYPLA1/2 band; settings: 1 µM or indicated concentrations (Figure 11); 60 min
[3] = 1 µM or indicated concentrations (Figure 11), 60 min

CCCCC/C=C\C/C=C\C/C=C\C/C=C\CCCC(=O)OC(CO)CO [2-AG, 2-arachidonoylglycerol]
Km (hABHD6): 110 to 160 µM | Km (hMAGL; 2-AG as the substrate, range given jointly for hABHD6, hABHD12 and hMAGL): 110 to 160 µM | Km (hABHD12): 110 to 160 µM

CCCCC/C=C/C=C1/C(=O)C=CC1C/C=C\CCCC(=O)OC(CO)CO (stereo not drawn) [15d-PGJ2-G, 15-deoxy-Δ^12,14-prostaglandin J2-2-glycerol ester]
Km (hMAGL; 15d-PGJ2-G as substrate for hMAGL): ~15 µM | hydrolysis by hBAT5 (substrate utilization, in words) (hBAT5 [1]; 25 µM substrate, 60 min): readily hydrolyzed | Km (hBAT5 [1]; substrate of hBAT5, time-point 90 min, n=3): 20.9 µM and ~21 µM | Vmax (hBAT5 [1]; substrate of hBAT5, total lysate protein, n=3): 3.0 ± 0.2 nmol/mg/min

O=C(Oc1ccc([N+](=O)[O-])cc1)N1CCN(Cc2cccc(Oc3ccccc3)c2)CC1 [JZL195]
inhibition of probe labeling of FAAH by reference inhibitor (FAAH; reference inhibitor at the indicated concentration, used to identify the band (ref 21)): inhibited | inhibition of probe labeling of ABHD6 by reference inhibitor (ABHD6): inhibited | inhibition of probe labeling of MAGL by reference inhibitor (MAGL; reference inhibitor at the indicated concentration, used to identify the band (refs 21, 22)): inhibited

COc1nn(-c2cccc([N+](=O)[O-])c2)c(=O)o1 [compound 40, 5-Methoxy-3-(3-nitrophenyl)-1,3,4-oxadiazol-2(3H)-one]
inhibition of probe binding to KIAA1363 (KIAA1363): did not visibly affect probe binding | pIC50 (hBAT5 [2]): 7.20 | BAT5 selectivity among serine hydrolases as compared to 38 (BAT5): improved BAT5 selectivity | inhibition of probe binding to FAAH (FAAH; [3]): did not visibly affect probe binding | inhibition of probe binding to MAGL (MAGL; [3]): did not visibly affect probe binding | inhibition of probe binding to LYPLA1/2 (LYPLA1/2): did not visibly affect probe binding

COc1nn(-c2ccc(F)cc2)c(=O)o1 [compound 44]
inhibition of probe binding to KIAA1363 (KIAA1363): shared one off-target with 38 | BAT5 selectivity among serine hydrolases as compared to 38 (BAT5): improved BAT5 selectivity
